How the values were obtained:
[1] = Liver microsome intrinsic clearance (mouse); type: in vitro ADME; conditions: pH 7.4; mouse liver microsomes; read-out: LMS CLINT mouse
Experimental: After a 5 min preincubation, the reaction was initiated by the addition of NADPH (1 mM). At selected time intervals between 0 ~ 60 min (e.g. 0, 3, 7, 15, 25, 45 and/or 60 min), aliquots were taken and subsequently placed into a 96-well plate containing cold acetonitrile with an internal standard (50 ng/mL carbamazepine). Plates were then centrifuged at 3000 rcf (4 °C) for 10 min, and the supernatant was transferred to a separate 96-well plate and diluted 1:1 with water for LC/MS/MS analysis. The in vitro half-life (T 1/2, min, Eq. 1), intrinsic clearance (CLint, mL/min/kg, Eq. 2), and subsequent predicted hepatic clearance (CLhep, mL/min/kg, Eq. 3) were determined employing the following equations: […]
where k represents the slope from linear regression analysis of the natural log percent remaining of a test compound as a function of incubation time […]
(2) CLint = in vitroT1/2 x mg microsomes x gram liver x kg body wt ascale-up factors: of 20 (human) or 45 (rat) or 87.5 (mouse) […]
where Qh (hepatic blood flow, mL/min/kg) is 21 (human) or 70 (rat) or 90 (mouse).
LC/MS/MS Bioanalysis of Samples from Plasma Protein Binding and Intrinsic Clearance […]
Samples were analyzed on a Thermo Electron TSQ Quantum Ultra triple quad mass spectrometer (San Jose, CA) via electrospray ionization (ESI) with two Themo Electron Accella pumps (San Jose, CA), and a Leap Technologies CTC PAL autosampler (Carrboro, NC). Analytes were separated by gradient elution on a dual column system with two Thermo Hypersil Gold (2.1 x 30 mm, 1.9 µm) columns (San Jose, CA) thermostated at 40 °C. HPLC mobile phase A was 0.1% formic acid in water and mobile phase B was 0.1% formic acid in acetonitrile. The gradient started […]
for 0.2 min; returned to 10% B in 0.1 min. The total run time was 1.3 min and the HPLC flow rate was 0.8 mL/min. While pump 1 ran the gradient method, pump 2 equilibrated the alternate column isocratically at 10% B. Compound optimization, data collection, and processing were performed using Thermo Electron's QuickQuan software (v2.3) and Xcalibur (v2.0.7 SP1). […]

[2] = Brain homogenate binding (rat); type: in vitro ADME
Experimental: (§1) 0.3% DMSO - ΔRatio of 1 µM control compound)x100
(§2) In vitro Plasma protein binding and Brain homogenate binding: Determination of fraction unbound (f u) in plasma was conducted in vitro via equilibrium dialysis using HTDialysis (HTD) membrane plates. The top half of the plate was filled with 100 uL of Dubelco’s Phosphate Buffered Saline, pH 7.4 (DPBS). Compounds were diluted into plasma from each species (5 µM final concentration), which was aliquoted in triplicate to the ‘bottom half’ of the prepared HTD plate wells. The HTD plate was sealed and incubated for 6 hours at 37 °C. […]
(§3) The unbound fraction (f u) was calculated following the equation below, and mean values for each species were calculated from 3 replicates. […] Fraction unbound for both plasma and brain samples was determined using Equation 4. […]
(§4) The diluted fraction unbound (fu2) in brain was calculated in the same manner by using brain homogenate rather than plasma. Undiluted fraction unbound for the brain was calculated using […]
(§5) were incubated in 100 mM potassium phosphate pH 7.4 buffer with 3 mM MgCl2 at 37 °C with constant shaking. […] The in vitro half-life (T 1/2, min, Eq. 1), intrinsic clearance (CLint, mL/min/kg, Eq. 2), and subsequent predicted hepatic clearance (CLhep, mL/min/kg, Eq. 3) were determined employing the following equations: […]

[3] = Brain homogenate binding (mouse); type: in vitro ADME
Experimental: as §1, §2, §3, §4, §5

[4] = Mouse PBL (plasma:brain level) study; type: in vivo
Experimental: fortified tube and immediately placed on wet ice. The blood sample was then centrifuged (1700 rcf, 5 minutes, 4 °C) to obtain plasma sample. At the same post-administration time point, a whole brain sample was obtained by rapid dissection, rinsed with PBS, and immediately frozen in individual tissue collection box (dry ice). All brain and plasma samples were stored at -80 °C until
Sample Analysis: Concentrations in plasma and brain homogenates were quantified by liquid chromatography tandem mass spectrometry (LC-MS/MS). Whole brains were homogenized in 3 mL of 70:30 IPA:water in a mini bead beater for 3 min, and centrifuged at 3,500 g for 5 min. 5 uL of the supernatant was diluted in 15 uL of blank plasma for quantification of the analytes. Plasma samples were centrifuged at 3,500 g for 5 min. A standard curve was generated by diluting the analytes DMSO stocks with blank plasma to obtain a final concentration of 10,000 ng/mL followed by a serial dilution down to 0.5 ng/mL. Quality controls were generated by a serial dilution of the 5,000 ng/mL standard curve solution in blank plasma to obtain 3 concentrations of 500, 50, and 5 ng/mL. 20 uL of brain diluted in plasma, plasma, blank plasma, standard curve and QC samples were loaded in a V-bottom 96-well plate. 120 uL of acetonitrile containing 0.05 uM carbamazepine (internal standard) was added to each well and the plate was centrifuged at 3,500 g for 5 min. 60 uL of the supernatant of each well (protein free) was transferred to a new 96-well plate containing 60 uL of water. The plates were sealed for analysis by LC-MS/MS.
Plasma and brain tissue samples originating from in vivo studies were analyzed by electrospray ionization using an AB Sciex Q-TRAP 5500 (Foster City, CA) that was coupled to a Shimadzu LC-20AD pump (Columbia, MD) and a Leap Technologies CTC PAL auto-sampler (Carrboro, NC). Analytes were separated by gradient elution using a C18 column (3 x 50 mm, 3 mm; Fortis Technologies Ltd, Cheshire, UK) that was thermostated at 40 °C. HPLC mobile phase A was 0.1% formic acid in water (pH unadjusted); mobile phase B was 0.1% formic acid in acetonitrile (pH
min, with an isocratic hold for 0.5 min, before transitioning to 10% B over 0.05 min. The column was re-equilibrated (1 min) before the next sample injection. The total run time was 2.55 min, and the HPLC flow rate was 0.5 mL/min. The source temperature was set at 500 °C, and mass spectral analyses were performed using a Turbo-Ion spray source in positive ionization mode (5.0-kV spray voltage) and using multiple-reaction monitoring of transitions specific for the analytes. All data were analyzed using AB Sciex Analyst 1.5.1 software.
Brain plasma concentration ratio (Kp) was calculated by dividing brain concentration by plasma concentration for each animal. Unbound brain to unbound plasma concentration ratio (Kp,uu) is calculated using the following formula: Kp,uu = (Brain ng/g x brain fu)/(plasma ng/mL x plasma

[5] = target: Adenosine A1 (Homo sapiens, UniProt P30542); experiment: Eurofins lead profiling screen (radioligand binding)
[6] = target: Adrenergic β1 (Homo sapiens, UniProt P08588); experiment: as above
[7] = target: Dopamine D2S (Homo sapiens, UniProt P14416); experiment: as above
[8] = target: Glucocorticoid (Homo sapiens, UniProt P04150); experiment: as above
[9] = target: Glutamate, NMDA, Glycine (Rattus norvegicus, UniProt P35439); experiment: as above
[10] = target: Prostanoid EP4 (Homo sapiens, UniProt P35408); experiment: as above
[11] = target: Sigma σ1 (Homo sapiens, UniProt Q99720); experiment: as above
Chain of Sigma σ1 (Q99720 whole entry): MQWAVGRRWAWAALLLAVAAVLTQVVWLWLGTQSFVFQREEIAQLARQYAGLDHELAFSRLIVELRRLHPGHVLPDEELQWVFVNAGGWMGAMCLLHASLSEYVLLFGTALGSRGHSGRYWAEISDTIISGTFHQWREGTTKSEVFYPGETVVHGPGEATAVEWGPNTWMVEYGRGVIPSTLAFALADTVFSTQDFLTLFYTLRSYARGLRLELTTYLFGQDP

Chain of Dopamine D2S (P14416 1-414 isoform P14416-2): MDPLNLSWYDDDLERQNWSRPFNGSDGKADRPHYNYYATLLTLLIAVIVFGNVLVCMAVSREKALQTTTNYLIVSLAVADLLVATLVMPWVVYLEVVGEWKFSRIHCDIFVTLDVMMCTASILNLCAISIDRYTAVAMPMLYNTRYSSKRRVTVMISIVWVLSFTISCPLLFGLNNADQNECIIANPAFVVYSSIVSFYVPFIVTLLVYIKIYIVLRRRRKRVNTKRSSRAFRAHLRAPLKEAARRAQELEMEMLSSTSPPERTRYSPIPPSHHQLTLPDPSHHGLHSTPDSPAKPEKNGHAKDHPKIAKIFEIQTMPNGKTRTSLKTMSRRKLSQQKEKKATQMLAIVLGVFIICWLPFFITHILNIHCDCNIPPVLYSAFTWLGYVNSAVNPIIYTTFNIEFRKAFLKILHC
Chain of Prostanoid EP4 (P35408 whole entry): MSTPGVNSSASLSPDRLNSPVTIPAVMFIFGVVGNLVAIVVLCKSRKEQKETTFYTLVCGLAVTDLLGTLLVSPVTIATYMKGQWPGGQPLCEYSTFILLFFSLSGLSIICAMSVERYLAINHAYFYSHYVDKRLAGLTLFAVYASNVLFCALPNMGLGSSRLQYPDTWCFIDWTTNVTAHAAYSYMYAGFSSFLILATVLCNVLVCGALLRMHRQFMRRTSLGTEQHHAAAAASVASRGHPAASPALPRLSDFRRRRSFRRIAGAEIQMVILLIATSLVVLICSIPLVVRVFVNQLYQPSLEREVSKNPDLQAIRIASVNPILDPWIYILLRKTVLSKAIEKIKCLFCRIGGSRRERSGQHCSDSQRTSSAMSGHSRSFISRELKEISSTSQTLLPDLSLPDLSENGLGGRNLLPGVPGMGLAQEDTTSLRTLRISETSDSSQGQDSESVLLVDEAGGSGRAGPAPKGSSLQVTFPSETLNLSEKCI
Chain of Glucocorticoid (P04150 whole entry): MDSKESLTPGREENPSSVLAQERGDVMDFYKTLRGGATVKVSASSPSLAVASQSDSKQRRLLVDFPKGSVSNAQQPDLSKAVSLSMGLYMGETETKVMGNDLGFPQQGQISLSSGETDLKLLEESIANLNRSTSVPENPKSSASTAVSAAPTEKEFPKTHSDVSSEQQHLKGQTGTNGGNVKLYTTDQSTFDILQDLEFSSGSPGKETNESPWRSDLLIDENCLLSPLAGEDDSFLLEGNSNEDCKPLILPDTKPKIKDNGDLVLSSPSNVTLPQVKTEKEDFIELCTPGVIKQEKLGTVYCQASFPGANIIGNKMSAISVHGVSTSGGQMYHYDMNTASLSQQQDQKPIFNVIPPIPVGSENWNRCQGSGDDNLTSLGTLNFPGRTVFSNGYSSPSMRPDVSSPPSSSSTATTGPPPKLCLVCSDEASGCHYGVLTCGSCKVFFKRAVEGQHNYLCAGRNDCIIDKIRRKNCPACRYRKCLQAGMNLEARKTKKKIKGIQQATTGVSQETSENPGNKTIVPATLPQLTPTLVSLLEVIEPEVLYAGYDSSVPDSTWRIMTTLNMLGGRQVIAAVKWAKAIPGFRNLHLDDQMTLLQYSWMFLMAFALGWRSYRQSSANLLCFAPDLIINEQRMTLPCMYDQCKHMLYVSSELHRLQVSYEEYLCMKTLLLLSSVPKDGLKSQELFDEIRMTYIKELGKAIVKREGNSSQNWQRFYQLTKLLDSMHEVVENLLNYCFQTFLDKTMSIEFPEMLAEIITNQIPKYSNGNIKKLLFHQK
Chain of Adenosine A1 (P30542 whole entry): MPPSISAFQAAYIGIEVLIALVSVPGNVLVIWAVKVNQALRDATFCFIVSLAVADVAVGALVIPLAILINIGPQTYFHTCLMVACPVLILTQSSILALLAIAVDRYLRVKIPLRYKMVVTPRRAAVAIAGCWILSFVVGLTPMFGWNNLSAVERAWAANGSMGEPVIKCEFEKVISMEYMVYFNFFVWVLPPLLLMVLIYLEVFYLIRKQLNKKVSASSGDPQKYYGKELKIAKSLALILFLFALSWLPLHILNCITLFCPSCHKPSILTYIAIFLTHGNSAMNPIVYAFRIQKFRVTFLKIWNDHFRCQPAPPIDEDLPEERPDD
Chain of Adrenergic β1 (P08588 whole entry): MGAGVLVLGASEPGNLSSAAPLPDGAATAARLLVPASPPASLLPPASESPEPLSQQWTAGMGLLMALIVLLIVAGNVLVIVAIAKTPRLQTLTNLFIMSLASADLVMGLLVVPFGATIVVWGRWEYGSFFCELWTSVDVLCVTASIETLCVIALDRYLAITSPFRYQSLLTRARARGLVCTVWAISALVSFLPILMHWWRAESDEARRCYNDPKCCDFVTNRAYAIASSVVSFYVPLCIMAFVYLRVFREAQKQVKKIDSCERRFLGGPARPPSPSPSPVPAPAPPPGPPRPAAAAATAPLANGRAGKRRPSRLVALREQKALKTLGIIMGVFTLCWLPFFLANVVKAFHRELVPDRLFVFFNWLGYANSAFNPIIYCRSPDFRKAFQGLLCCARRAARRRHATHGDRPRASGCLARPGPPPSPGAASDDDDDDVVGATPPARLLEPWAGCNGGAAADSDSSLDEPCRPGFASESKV

| Compound | CLint scaled at 1 µM [1] [mL/min/kg] | brain homogenate binding rat [2] [%] | brain homogenate binding mouse [3] [%] | Tmax ([4]; CD-1, brain, mouse, 10 mg/kg IP) [h] | Cmax total brain concentration ([4]; CD-1 male mouse, 10 mg/kg PO) [nM] | brain AUC ([4]; CD-1 male mouse, 10 mg/kg PO) [nM·h] | Tmax ([4]; brain, CD-1 male mouse, 10 mg/kg PO) [h] | Cmax total brain exposure ([4]; mouse, 10 mg/kg IP) [nM] | brain AUC ([4]; mouse, 10 mg/kg IP) | Cmax unbound brain ([4]; mouse, 10 mg/kg IP, based on mouse brain homogenate binding) [nM] | inhibition at 10 µM [5] [%] | inhibition at 10 µM [6] [%] | inhibition at 10 µM [7] [%] | inhibition at 10 µM [8] [%] | inhibition at 10 µM [9] [%] | inhibition at 10 µM [10] [%] | inhibition at 10 µM [11] [%] |
| --- | --- | --- | --- | --- | --- | --- | --- | --- | --- | --- | --- | --- | --- | --- | --- | --- | --- |
| Cc1cc(C#Cc2ccc(F)cc2)cnc1NC(=O)c1cc(NC(=O)OC(C)(C)C)ccc1Cl [Compound 14c] | 13 | > 99.9 | 99.4 | 4 | 252 | 2269 | 4 | 888 | 12,261 h*nM | 5.3 | – | – | – | – | – | – | – |
| O=C(NCc1ccc(OC(F)(F)F)cc1F)c1ccc2ncnn2c1 [ONO-2920632] | – | – | – | – | – | – | – | – | – | – | 2 | -1 | -1 | -4 | -6 | 19 | 30 |

From article PMC12067145 (ACS Medicinal Chemistry Letters, 2025)
